Some test systems named below: RXF 393 renal; LOX IMVI melanoma; NCI-H23 lung; ACHN renal; HOP-92 NSCLC; HCT-15 colon; HL-60(TB) leukemia; MCF7 breast; NCI/ADR-RES ovarian; MDA-MB-435.
Test in all cases: DTP human tumour cell line panel, 48 h

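1) Cells in 96-well plates. 2) Compound, 48 h, 5 concentrations. 3) Linear interpolation between surrounding doses. 4) Unreached endpoint = highest concentration. GI50 marks 50% less growth. Definition used: TGI = concentration required for complete inhibition of growth.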

For the compound `CC(=O)C1C(=O)C(=O)N(CCN2C(=O)C(=O)C(C(C)=O)C2=O)C1=O` (centres undefined), the TGI in the experiment with RXF 393 renal, in the experiment on LOX IMVI melanoma, in the experiment on NCI-H23 lung, in the experiment on ACHN renal, in the experiment with HOP-92 NSCLC and with HCT-15 colon was over 100 µM each time.
Turning to `CN(C)c1ccc2[nH]c3c(C(N)=O)cc(=O)c(=O)c=3oc2c1`, the GI50 was 0.668 µM with HL-60(TB) leukemia; 1.64 µM in the experiment with MCF7 breast; 1.89 µM in the experiment on RXF 393 renal; 0.334 µM in the experiment on LOX IMVI melanoma; 1.81 µM with NCI/ADR-RES ovarian; 1.1 µM in the experiment with NCI-H23 lung. The GI50 with ACHN renal is 0.767 µM; with HOP-92 NSCLC, 1.72 µM; in the experiment with HCT-15 colon, 0.766 µM. Besides, the TGI with HL-60(TB) leukemia is 4.04 µM; in the experiment on MCF7 breast, 8.64 µM; in the experiment with RXF 393 renal it was 7.24 µM; in the experiment with LOX IMVI melanoma, over 100 µM; in the experiment with NCI/ADR-RES ovarian, 8.39 µM; with NCI-H23 lung, 25.8 µM. The TGI in the experiment with ACHN renal was 8.98 µM; with HOP-92 NSCLC, 8.58 µM; in the experiment on HCT-15 colon, over 100 µM.
As for `COc1ccc2nc3ccccc3c(NCCCCN(CCCl)CCCl)c2c1`, the total growth inhibition concentration (TGI) in the experiment with MCF7 breast came out at 5.23 µM; in the experiment with MDA-MB-435 it was 21.4 µM; in the experiment on RXF 393 renal, 0.289 µM; in the experiment with NCI/ADR-RES ovarian, 5.4 µM; in the experiment with NCI-H23 lung, 2.09 µM; in the experiment with ACHN renal, 1.15 µM. Moreover, the TGI in the experiment on HCT-15 colon was over 43 µM.
Take `CC(=O)CC(=O)Nc1ccccc1C(F)(F)F`: the TGI with HL-60(TB) leukemia, with RXF 393 renal, with LOX IMVI melanoma, in the experiment with NCI-H23 lung, in the experiment on ACHN renal and in the experiment on HOP-92 NSCLC was over 100 µM each time. The same compound gave a TGI with HCT-15 colon of over 100 µM.
For `CCN(CC)C(=S)SS(C)(=O)=O`, the TGI turned out to be 26.6 µM in the experiment on HL-60(TB) leukemia; 23.4 µM in the experiment with RXF 393 renal; 26.5 µM in the experiment with LOX IMVI melanoma; 35.4 µM in the experiment with NCI-H23 lung; 31.8 µM in the experiment with ACHN renal; 54.2 µM with HOP-92 NSCLC. The compound further gave a TGI with HCT-15 colon of 26.2 µM.
Turning to `CSc1nnc(C(C#N)C#N)nn1`, the TGI in the experiment on HL-60(TB) leukemia, with RXF 393 renal, in the experiment on LOX IMVI melanoma, in the experiment on NCI-H23 lung, in the experiment on HOP-92 NSCLC and in the experiment on HCT-15 colon was over 100 µM each time.
In the case of `COC1/C(=C\C(C)=O)c2ccccc2N1C(C)=O` (centres undefined), the total growth inhibition concentration (TGI) with HL-60(TB) leukemia, in the experiment with RXF 393 renal, with NCI-H23 lung, in the experiment on ACHN renal, with HOP-92 NSCLC and in the experiment on HCT-15 colon was over 100 µM each time.
As to `CCN(CC)c1ccc(C2N3CCCCC3[C@@H]3c4[nH]c5ccccc5c4CCN23)cc1` (some centres undefined), the TGI in the experiment on HL-60(TB) leukemia is 30.8 µM; in the experiment on RXF 393 renal, 44.1 µM; in the experiment on NCI-H23 lung, over 100 µM; in the experiment with ACHN renal it was 74.7 µM; in the experiment on HOP-92 NSCLC, over 100 µM; in the experiment with HCT-15 colon, over 100 µM.
As to `O=C(Oc1c(Cl)cc(Cl)cc1Cl)c1ccccc1Nc1ccnc(C(F)(F)F)c1`, the GI50 in the experiment on HL-60(TB) leukemia was 3.97 µM; in the experiment with MCF7 breast, 4.68 µM; in the experiment on RXF 393 renal, 9.47 µM; in the experiment on LOX IMVI melanoma, 1.99 µM; in the experiment with NCI-H23 lung, 2.59 µM; with ACHN renal, 2.46 µM. For the same compound, the GI50 in the experiment with HOP-92 NSCLC is over 100 µM; with HCT-15 colon, 2.7 µM. Besides, the concentration for total growth inhibition (TGI) in the experiment on HL-60(TB) leukemia was over 100 µM; with MCF7 breast it was over 100 µM; in the experiment with RXF 393 renal it was over 100 µM; in the experiment on LOX IMVI melanoma, 5.13 µM; in the experiment on NCI-H23 lung, 6.3 µM; in the experiment with ACHN renal it was 6.52 µM. In addition, the TGI is over 100 µM with HOP-92 NSCLC and 10.6 µM with HCT-15 colon.
As for `O=C1/C(=C/c2ccc(C(F)(F)F)cc2)COc2ccc(O)c(O)c21`, the GI50 is 0.52 µM in the experiment with HL-60(TB) leukemia; 1.26 µM with MDA-MB-435; 1.6 µM with RXF 393 renal; 0.377 µM in the experiment on LOX IMVI melanoma; 1.8 µM with NCI/ADR-RES ovarian; 1.61 µM with NCI-H23 lung. Further, the GI50 with ACHN renal was 1.11 µM; with HOP-92 NSCLC it was 1.97 µM; in the experiment with HCT-15 colon, 0.444 µM. Besides, the total growth inhibition concentration (TGI) with HL-60(TB) leukemia came to 3.06 µM; with MDA-MB-435, 2.68 µM; in the experiment on RXF 393 renal, 3.05 µM; with LOX IMVI melanoma it was 1.48 µM; in the experiment on NCI/ADR-RES ovarian, 6.59 µM; in the experiment on NCI-H23 lung, 3.21 µM. For the same compound, the values for the TGI with ACHN renal, in the experiment on HOP-92 NSCLC and in the experiment on HCT-15 colon were 2.31 µM, 6.67 µM and 1.93 µM, respectively.
For `Cc1cc(Br)ccc1N=Nc1c(C)nn(-c2ccccc2)c1-c1ccccc1`, the concentration for total growth inhibition (TGI) with HL-60(TB) leukemia, with RXF 393 renal, with LOX IMVI melanoma, in the experiment on NCI-H23 lung, in the experiment with ACHN renal and in the experiment on HOP-92 NSCLC was over 100 µM throughout. Moreover, the TGI in the experiment with HCT-15 colon was over 100 µM.
For the compound `COc1cc(O)c(C(=O)/C=C/c2ccc(OC)c(OCc3ccccc3)c2)c(OC)c1`, the total growth inhibition concentration (TGI) in the experiment on HL-60(TB) leukemia, with RXF 393 renal, with LOX IMVI melanoma, in the experiment on NCI-H23 lung, in the experiment with ACHN renal and in the experiment with HOP-92 NSCLC was over 100 µM each time. Moreover, the total growth inhibition concentration (TGI) with HCT-15 colon is over 100 µM.
`CC1=C(C(=O)Nc2ccc(Cl)c(Cl)c2)C(c2cccc(Cl)c2)NC(=S)N1` (centres undefined): the GI50 in the experiment with HL-60(TB) leukemia is 16.5 µM; with MCF7 breast it was over 50 µM; in the experiment on MDA-MB-435, 14 µM; with RXF 393 renal, 9.63 µM; in the experiment with LOX IMVI melanoma, 12.8 µM; in the experiment with NCI-H23 lung, 9.79 µM. Further, the GI50 in the experiment on ACHN renal is 12.4 µM; in the experiment with HOP-92 NSCLC, 14.2 µM; in the experiment on HCT-15 colon, 15.1 µM. For the same compound, the concentration for total growth inhibition (TGI) in the experiment on HL-60(TB) leukemia was 45.5 µM; in the experiment with MCF7 breast, over 50 µM; with MDA-MB-435 it was 45.1 µM; with RXF 393 renal it was 23.6 µM; in the experiment on LOX IMVI melanoma, over 50 µM; in the experiment on NCI-H23 lung, 20.9 µM. The results for the total growth inhibition concentration (TGI) in the experiment with ACHN renal, with HOP-92 NSCLC and with HCT-15 colon were 37.1 µM, over 50 µM and over 50 µM, respectively.

The values above are taken from PubChem BioAssay (NCI).
